From patent US10117940B2, “DPI formulation containing sulfoalkyl ether cyclodextrin” (CyDex Pharmaceuticals, Inc., priority 2004, dated 2018)

How the values were obtained:
rats = details: inhaled aerosol composition, SBE-CD present alone; cited from earlier work
healthy volunteers = details: nasal spray in aqueous sulfobutylether-beta-cyclodextrin buffer solution; cited from earlier work
[1] = Electrostatic charge measurement with Faraday cage apparatus; format: physicochemical; details: for Electrostatic charge of active agent, Approx. Magnitude: exemplary active agent of the charge range
Procedure: Determination of the electrostatic charge of the SAE-CD-containing carrier and the active agent-containing composition.
Electrostatic charge measurements were performed using a Faraday Cage apparatus that determines the potential difference changes as a function of time during powder flow onto a conducting surface. Samples were weighed and transferred from original containers to wax coated weighing papers. These were mounted to a vibrating spatula (set at maximum vibration level). The angle of the spatula was set at a constant angle (30 degrees). Powder was dispensed to the Faraday cage that was connected to a electrometer. Data collection was performed using Windaq interface and a PC computer sampling at 240 Hz. The area under the electrostatic dissipation curve was determined (Voltage×time) and charge (nC/g) was calculated from the known resistance of the setup.

| Molecule | Toxicity (rats) | Side effects (healthy volunteers) | Polarity and magnitude of electrostatic charge (in words) [1] | Electrostatic charge of active agent, Approx. Magnitude [1] [nC/g] | Electrostatic charge ([1]; micronized for inhalation) [nC/g] |
| --- | --- | --- | --- | --- | --- |
| sulfobutyl ether derivative of beta cyclodextrin [SBE-CD] | non-toxic | – | – | – | – |
| Cc1ncc2n1-c1ccc(Cl)cc1C(c1ccccc1F)=NC2 [midazolam] | – | No serious side effects | – | – | – |
| O=C(O)c1cc(=O)c2c(OCC(O)COc3cccc4oc(C(=O)O)cc(=O)c34)cccc2o1 [Na Cromolyn, sodium cromolyn] | – | – | electroneutral | −2 to −0.5 | −1 to −1.7 |
| CC(C)(C)NCC(O)c1ccc(O)c(CO)c1 (stereo not drawn) [Albuterol, alpha^1-(((1,1-dimethylethyl)amino)methyl)-4-hydroxy-1,3-benzenedimethanol] | – | – | high positive charge | >4 | – |
